Measured values from US7312358B2, “Pharmaceutically active sulfanilide derivatives” (Laboratoires Serono SA, priority 2000, dated 2007).

Assays:
ratOT-R = target: T1, ratOT-R (Rattus norvegicus, UniProt P70536); assay: Inhibition of IP3 (inositol tri-phosphate)-synthesis in HEK/EBNA-OTR cells; format: cell-based; settings: [3H]-inositol, oxytocin 10 nM
T1 construct: expressed in transfected cells; host or cells: HEK/EBNA cells
T1 sequence (P70536 1-388): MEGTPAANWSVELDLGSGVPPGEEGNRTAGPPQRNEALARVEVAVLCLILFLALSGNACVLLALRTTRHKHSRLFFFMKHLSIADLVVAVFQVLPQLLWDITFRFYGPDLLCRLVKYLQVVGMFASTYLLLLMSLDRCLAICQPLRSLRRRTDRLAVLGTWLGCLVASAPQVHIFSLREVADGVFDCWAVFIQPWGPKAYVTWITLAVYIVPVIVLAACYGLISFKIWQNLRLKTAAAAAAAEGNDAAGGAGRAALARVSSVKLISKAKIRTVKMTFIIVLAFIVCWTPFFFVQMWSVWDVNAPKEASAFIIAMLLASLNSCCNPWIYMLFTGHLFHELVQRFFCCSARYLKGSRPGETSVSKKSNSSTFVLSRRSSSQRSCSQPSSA
Description: e) Functional Assay No. 2: Inhibition of IP3 (Inositol Tri-Phosphate)-Synthesis in HEK/EBNA-OTR Cells
This assay intends to show the inhibition of the OT/OT-R mediated IP3 synthesis—being necessary to cause uterine contractions—by using test compounds of formula (I).
Stimulation of the cells: IIEK/EBNA OTR(rat or human) cells were plated out into costar 12-well plates, and equilibrated for 15-24 h with [^3H]-inositol radiolabel in medium without inositol supplement, with 1% FCS (0.5 ml/well). 4 μCi/ml were used. After this, the medium containing the label was aspirated. Then was added DMEM (without FCS, inositol), 20 mM Hepes (4-(2-hydroxyethyl)-1-piperazine-ethane-sulphonic acid), 1 mg/ml BSA containing 10 mM LiCl (freshly prepared), for […] at 37° C. The agonist (i.e. oxytocin used at a concentration of 10 nM) and the antagonists (i.e. the tests compounds of formula (1) used in a concentration of 10 μM, 1 μM, 300 nM, 100 nM, 10 nM, 1 nM, 100 pM, 10 pM, 3 pM) were added for the time required (15-45 min), followed by aspiration of the medium. Due to the […] of the OT receptor, the radiolabeled inositol is phosphorylated to yield IP3, the amount of the radiolabeled IP3 may be determined through the ensuing work-up. The reaction was stopped with 1 ml STOP-solution (i.e. 0.4 M perchloric acid), and let sit for 5-10 min at Room Temperature. Then, 0.8 ml were transferred into tubes containing 0.4 ml of neutralizing solution (0.72 M KOH/0.6M KHCO3), and the tubes vortexed and kept in the cold at least for 2 h.
Separation of IP's: The samples were spun in a table top centrifuge at 3000-4000 rpm for 15 min. 1 ml of the supernatant was transferred to new tubes containing 2.5 ml H2O. Packed resin (0.8 ml) was equilibrated with 20 ml H2O, and the whole samples poured onto the chromatography columns, thus separating the mixture. To discard free inositol, two washes with 10 ml H2O were carried out.
Elution of total IP's: The elution was achieved using 3 ml 1M ammonium formate/0.1M formic acid. The eluant was collected in scintillation counting tubes, followed by addition of 7 ml of scintillation liquid. The amount of IP3 is determined by a scintillating counter.
The activities of the sulfanilide derivatives claimed in the formula I were assessed using the above described in vitro biological assay. The values refer to the capacity of the example compounds according to formula I to effectively antagonize oxytocin-induced IP3-synthesis mediated by the oxytocin receptor.

hV1a = hV1a (Homo sapiens, UniProt P37288); assay: In vitro competition binding assay on hV1a receptor with scintillating proximity assay; set-up: expressed in transfected cells; host or cells: CHO cells (membranes); settings: membranes from CHO cells expressing hV1a receptor; radiolabel [125I]-LVA; SPA; read-out: Binding Affinity Human V1a Ki
Description: b) In Vitro Competition Binding Assay on hV1a Receptor with Scintillating Proximity Assay
This assays allows to determine the affinity of the test compounds for the V1a receptor. Membranes from CHO cells expressing the hV1a receptor were resuspended in buffer containing 50 mM Tris-HCl, pH 7.4, 5 mM MgCl2 and 0.1% BSA (w/v). The membranes (5-10 μg) were mixed with 0.2 mg wheat-germ aglutinin (WGA) SPA bead (type A) and 0.03 nM of the radiolabel [^125I]-LVA (LVA being Linear Vasopressin Antagonist and is an analogue of AVP for competition binding experiments). Non-specific binding was determined in the presence of 1 μM AVP. The total assay volume was 100 μl. The plates (Corning 0 NBS plate) were incubated at room temperature for 2 hours and counted on a Mibrobeta plate counter. The tests compounds were used in concentrations of 30 μM, 10 μM, 1 μM, 300 nM, 100 nM, 10 nM, 1 nM, 100 pM, 10 pM. The competition binding data were analysed using the iterative, nonlinear, curve-fitting program, Graph pad “Prism”.
The binding affinities to the Via receptor of the sulfanilide derivatives claimed in the formula I were assessed using the above described in vitro biological assay. The values refer to the binding affinity (IC50; HM) of the example compounds according to formula I to the V1a receptor. From the values shown in Table 1 it can be derived that said test compounds according to formula I do show a significant binding to the Via receptor.

Sequence of hV1a (P37288 whole entry): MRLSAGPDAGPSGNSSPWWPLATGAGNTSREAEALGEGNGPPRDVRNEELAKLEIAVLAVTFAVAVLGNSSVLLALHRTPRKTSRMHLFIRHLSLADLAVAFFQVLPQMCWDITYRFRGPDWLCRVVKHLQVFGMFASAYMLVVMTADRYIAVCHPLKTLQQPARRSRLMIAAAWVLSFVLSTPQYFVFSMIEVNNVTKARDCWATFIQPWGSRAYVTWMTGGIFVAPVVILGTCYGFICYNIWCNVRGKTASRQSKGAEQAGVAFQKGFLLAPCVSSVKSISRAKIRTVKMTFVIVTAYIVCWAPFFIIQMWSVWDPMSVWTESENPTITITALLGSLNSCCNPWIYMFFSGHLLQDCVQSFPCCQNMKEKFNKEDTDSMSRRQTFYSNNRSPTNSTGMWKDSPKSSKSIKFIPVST

Compound: CCOc1ccc(S(=O)(=O)N(CC(=O)N/N=C2/C(=O)Nc3ccccc32)c2ccc(C)cc2)cc1 [Example 5, 4-ethoxy-N-(4-methylphenyl)-N-{2-oxo-2-[2-(2-oxo-1,2-dihydro-3H-indol-3-ylidene)hydrazino]ethyl}benzenesulfonamide]
- IC50 (ratOT-R): 13 nM
- Ki (hV1a): 750 nM
